Patent publication US9814739B2, “2′-ethynyl nucleoside derivatives for treatment of viral infections” (priority 2012, dated 2017)
Where two headings read alike, the source gives them in different places.

Legend:
[1] = test system: GT1b HCV luciferase replicon; assay: HCV replicon antiviral EC50 assay; assay type: cell-based, Hepatitis C virus
Dengue virus = assay: Dengue assay on cryopreserved PBMC cells (plaque reduction readout on BHK cells); assay type: cell-based; details: Dengue virus, PBMC, 48 h, human PBMC cells
Protocol: Cryopreserved human PBMC cells were purchased from approved vendors. It was then thawed according to manufacturer's instructions and suspended in RPMI medium supplemented with 1% penicillin/streptomycin solution and 10% Fetal Calf serum. The cells were then counted and viability checked (viability should be at least 70%). After centrifuging and removing the media, the cells were diluted to 1×10^7 cells/mL in RPMI medium supplemented with 1% penicillin/streptomycin. 50 μl of the cells were then dispensed into 96-well tissue culture plate constituting 5×10^5 cells/well. Next, virus with humanized 4G2 mixture was prepared for infection. Briefly, virus (2×10^7 pfu/ml) was mixed with humanized 4G2 antibody with the final antibody concentration of 0.38 μg/ml and incubated for 30 minutes at 4° C. to assist virus/antibody complex formation. The virus-antibody complex was then added to the PBMC at multiplicity of infection (M.O.I) of 0.5. The resulting media was then and further incubated the plates at 37° C. in the humidified incubator for infection to take place. Serial diluted compounds were then added and finally media was added such that the final media volume was 200 μl with 2% Fetal Calf Serum. The plates were then incubated at 37° C., 5% CO2 for another 48 hours. The extent of the infection and compound inhibition was measured by plaque reduction assay using BHK cells. Briefly, BHK cells grown in 24-well tissue culture were subjected to supernatants derived from infection containing serial diluted compounds. After additional 4 days, the monolayer of BHK cells were fixed, stained with crystal violet stain and plaques counted. Dose response curves were plotted from the mean absorbance (n=3) versus the log of the concentration of test compounds. The EC50 is calculated by nonlinear regression analysis. A positive control (7-deaza-2′-C-acetylene-adenosine) was used to ensure the quality of the data.

[2] = 4 day CCK-8 cytotoxicity assay using THP-1 cells; assay type: cell-based; details: human, read-out: Dengue CC50 (THP-1)
Protocol: 3) Protocols for Automated 4 Days CCK8 (Dojindo) Cytotoxicity Assay in HepG2 and THP-1 Cells • 1. 25 μL of HepG2 suspension containing 1.6×10^4 cells/ml (400 cells/well) or 25 μL of THP-1 suspension containing 8×10^4 cells/ml (2000 cells/well) was dispensed into a clear 384-well plate by GNF dispenser 2B vertical-head. • 2. The plate was pre-incubated for 24 h in the GNF incubator (humidified, 37° C., 5% CO2). • 3. Serial-diluted compound were directly transferred into the culture media in the plate (200× dilution). • 4. Plates were incubated for 96 hours in the GNF incubator. • 5. CCK-8 was thawed on the bench-top, and was pre-diluted with media (2.5× dilutions). • 6. 35 μL of 2.5× diluted CCK8 was added to each well of the plate by GNF dispenser 1C angled-head. • 7. The plates were incubated for 3 hours in the incubator. • 8. The absorbance at 450 nm was measured by Envision. Dengue Assay on Cryopreserved PBMC Cells
THP-1 cells grown in suspension were counted and diluted to 8×10^4 cells/ml in RPMI-1640 media supplemented with 10% fetal bovine serum and 1% penicillin/streptomycin. 25 ul of the THP-1 containing media consisting of 2000 cells were dispensed in 384-well tissue culture plate and pre-incubated at room temperature for 30 minutes, followed by 37° C., 5% CO2 overnight in the humidified incubator. On the next day, serial-diluted compound plates were prepared and 125 nl of compounds at various concentrations were then dispensed into the tissue culture well (200× dilution). The plates were then transferred to 37° C., 5% CO2 humidified incubator for additional 96 hours. Cytotoxicity was measured by CCK-8 assay. Briefly, CCK-8 was thawed on bench top and diluted 2.5× with the growth media. 35 ul of the pre-diluted CCK-8 was then introduced into each well and the plates were then further incubated in 37° C., 5% CO2 humidified incubator for 3 hours. The absorbance was read by Envision at 450 nm. Dose response curves were plotted from the mean absorbance (n=2) versus the log of the concentration of test compounds. The EC50 is calculated by nonlinear regression analysis. A positive control (puromycin) was used to ensure the quality of the data.

in vitro = details: HCV GT1b CC50 (uM)
[3] = test system: Replicon cells, expressing the GT1b HCV luciferase replicon
[4] = Hepatitis C virus, GT1B, 72 h, read-out: HCV GT1b EC50 (uM)

Structure (SMILES)	EC50 [1, 4] [µM]	EC50 (Dengue virus) [nM]	CC50 at 96 h [2] [nM]	CC50 (in vitro) [µM]	EC50 ([1]; read-out: HCV GT1b EC50) [µM]	CC50 [3] [nM]
C#C[C@@]1(O)[C@H](O)[C@@H](COP(=O)(N[C@@H](C)C(=O)OC2CCCCC2)Oc2ccc(Cl)cc2)O[C@H]1n1ccc(=O)[nH]c1=O (stereo partly drawn) [Example 1.7, (2S)-cyclohexyl 2-(((4-chlorophenoxy)(((2R,3R,4R,5R)-5-(2,4-dioxo-3,4-dihydropyrimidin-1(2H)-yl)-4-ethynyl-3,4-dihydroxytetrahydrofuran-2-yl)methoxy)phosphoryl)amino)propanoate]	0.087	170	13000	> 25	–	–
C#C[C@@]1(O)[C@H](O)[C@@H](COP(=O)(N[C@@H](C)C(=O)OCc2ccccc2)Oc2ccc(Cl)cc2)O[C@H]1n1ccc(=O)[nH]c1=O (stereo partly drawn) [Example 1.5, (2S)-benzyl 2-(((4-chlorophenoxy)(((2R,3R,4R,5R)-5-(2,4-dioxo-3,4-dihydropyrimidin-1(2H)-yl)-4-ethynyl-3,4-dihydroxytetrahydrofuran-2-yl)methoxy)phosphoryl)amino)propanoate]	0.131	60	8300	> 25	–	–
C#C[C@@]1(O)[C@H](O)[C@@H](COP(=O)(N[C@@H](CCC)C(=O)OC(C)C)Oc2ccccc2)O[C@H]1n1ccc(=O)[nH]c1=O (single isomer, unassigned) [1.24 (peak 1)]	–	–	–	–	0.89	> 25000
C#C[C@@]1(O)[C@H](O)[C@@H](COP(=O)(N[C@@H](C)C(=O)OC(C)C)Oc2ccccc2)O[C@H]1n1ccc(N)nc1=O (single isomer, unassigned) [1.30 (peak 1)]	–	–	–	–	44.9	> 25000
C#C[C@@]1(O)[C@H](O)[C@@H](COP(=O)(NCC(=O)OC(C)C)Oc2ccc(Cl)cc2)O[C@H]1n1ccc(=O)[nH]c1=O (stereo partly drawn) [Example 1.6, isopropyl 2-(((4-chlorophenoxy)(((2R,3R,4R,5R)-5-(2,4-dioxo-3,4-dihydropyrimidin-1(2H)-yl)-4-ethynyl-3,4-dihydroxytetrahydrofuran-2-yl)methoxy)phosphoryl)amino)acetate]	0.152	170	> 50000	> 25	–	–
C#C[C@@]1(O)[C@H](O)[C@@H](COP(=O)(N[C@@H](C)C(=O)OC2CCOCC2)Oc2ccccc2)O[C@H]1n1ccc(=O)[nH]c1=O (single isomer, unassigned) [1.14 (peak 1)]	–	–	–	–	1.15	> 25000
C#C[C@@]1(O)[C@H](O)[C@@H](COP(=O)(NC(C)(C)C(=O)OC(C)C)Oc2ccccc2)O[C@H]1n1ccc(=O)[nH]c1=O (single isomer, unassigned) [1.39 (peak 1)]	–	–	–	–	1.5	> 25000
C#C[C@@]1(O)[C@H](O)[C@@H](COP(=O)(N[C@@H](C)C(=O)OC(CCC)CCC)Oc2ccccc2)O[C@H]1n1ccc(=O)[nH]c1=O (single isomer, unassigned) [1.34 (peak 1)]	–	–	–	–	0.301	> 25000
CC#C[C@@]1(O)[C@H](O)[C@@H](COP(=O)(N[C@@H](C)C(=O)OC(C)C)Oc2ccccc2)O[C@H]1n1ccc(=O)[nH]c1=O (stereo partly drawn) [Example 1.1, (2S)-isopropyl 2-(((((2R,3R,4R,5R)-5-(2,4-dioxo-3,4-dihydropyrimidin-1(2H)-yl)-3,4-dihydroxy-4-(prop-1-yn-1-yl)tetrahydrofuran-2-yl)methoxy)(phenoxy)phosphoryl)amino)propanoate]	0.243	970	48000	> 25	–	–
C#C[C@@]1(O)[C@H](O)[C@@H](COP(=O)(N[C@@H](C)C(=O)OCC)Oc2ccccc2)O[C@H]1n1ccc(=O)[nH]c1=O (single isomer, unassigned) [1.36 (peak 1)]	–	–	–	–	0.103	> 25000
C#C[C@@]1(O)[C@H](O)[C@@H](COP(=O)(NC(C)(C)C(=O)OCC)Oc2ccccc2)O[C@H]1n1ccc(=O)[nH]c1=O (single isomer, unassigned) [1.37 (peak 1)]	–	–	–	–	0.367	> 25000
C#C[C@@]1(O)[C@H](O)[C@@H](COP(=O)(N[C@@H](C)C(=O)OC)Oc2ccccc2)O[C@H]1n1ccc(=O)[nH]c1=O (single isomer, unassigned) [1.35 (peak 1)]	–	–	–	–	0.294	> 25000
C#C[C@@]1(O)[C@H](O)[C@@H](COP(=O)(N[C@@H](CC)C(=O)OC(C)C)Oc2ccccc2)O[C@H]1n1ccc(=O)[nH]c1=O (single isomer, unassigned) [1.38 (peak 1)]	–	–	–	–	0.37	> 25000
C#C[C@@]1(O)[C@H](O)[C@@H](COP(=O)(N[C@@H](C)C(=O)O[C@@H](C)CC)Oc2ccccc2)O[C@H]1n1ccc(=O)[nH]c1=O (single isomer, unassigned) [1.13 (peak 1)]	–	–	–	–	0.302	> 25000
C#C[C@@]1(O)[C@H](O)[C@@H](COP(=O)(NCCOC(=O)c2ccccc2)Oc2ccccc2)O[C@H]1n1ccc(=O)[nH]c1=O (single isomer, unassigned) [1.18 (peak 1)]	–	–	–	–	0.08	> 25000
C#C[C@@]1(O)[C@H](O)[C@@H](COP(=O)(N[C@@H](C)C(=O)OC(C)C)Oc2ccccc2)O[C@H]1n1ccc(OC)nc1=O (single isomer, unassigned) [1.28 (peak 1)]	–	–	–	–	> 100	> 25000
C#C[C@@]1(O)[C@H](O)[C@@H](COP(=O)(N[C@@H](C)C(=O)OC(CC)CC)Oc2ccc(Cl)cc2)O[C@H]1n1ccc(=O)[nH]c1=O (stereo partly drawn) [Example 1.4, (2S)-pentan-3-yl 2-(((4-chlorophenoxy)(((2R,3R,4R,5R)-5-(2,4-dioxo-3,4-dihydropyrimidin-1(2H)-yl)-4-ethynyl-3,4-dihydroxytetrahydrofuran-2-yl)methoxy)phosphoryl)amino)propanoate]	0.087	60	> 50000	> 25	–	–
C#C[C@@]1(O)[C@H](O)[C@@H](COP(=O)(N[C@@H](C)C(=O)OC2CCCC2)Oc2ccccc2)O[C@H]1n1ccc(=O)[nH]c1=O (single isomer, unassigned) [1.31 (peak 1)]	–	–	–	–	0.024	> 25000
C#C[C@@]1(O)[C@H](O)[C@@H](COP(=O)(N[C@@H](C)C(=O)OCC(C)(C)OC)Oc2ccccc2)O[C@H]1n1ccc(=O)[nH]c1=O (single isomer, unassigned) [1.32 (peak 1)]	–	–	–	–	0.53	> 25000
C#C[C@@]1(O)[C@H](O)[C@@H](COP(=O)(N[C@@H](C)C(=O)O[C@H](C)CC)Oc2ccc(Cl)cc2)O[C@H]1n1ccc(=O)[nH]c1=O (stereo partly drawn) [Example 1.3, (2S)-(R)-sec-butyl 2-(((4-chlorophenoxy)(((2R,3R,4R,5R)-5-(2,4-dioxo-3,4-dihydropyrimidin-1(2H)-yl)-4-ethynyl-3,4-dihydroxytetrahydrofuran-2-yl)methoxy)phosphoryl)amino)propanoate]	0.095	60	16000	> 25	–	–
C#C[C@@]1(O)[C@H](O)[C@@H](COP(=O)(N[C@@H](CC(C)C)C(=O)OC(C)C)Oc2ccccc2)O[C@H]1n1ccc(=O)[nH]c1=O (single isomer, unassigned) [1.23 (peak 1)]	–	–	–	–	2.72	> 25000
